Entries after “also recorded” stand apart in the source; their conditions may differ.
Experiments:
M. tuberculosis [1] = test: microbe, parasite or virus in culture; format: cell-based
M. tuberculosis [2] = format: cell-based

SMILES | Sensitive (S) or Resistant (R) (M. tuberculosis [1]) | increase in minimal inhibitory concentration (MIC) (M. tuberculosis [1]) [fold] | increase in the MIC (M. tuberculosis [1]) [fold] | minimal inhibitory concentration (MIC) (M. tuberculosis [1]) [µg/mL] | expression signature (MSD Z-score) (M. tuberculosis [2]) | expression signature induction upon exposure (M. tuberculosis [2]) | transcriptional response (M. tuberculosis [2]) | transcriptional response / expression signature (M. tuberculosis [2])
[H]/N=C(/N)N[C@H]1[C@H](O)[C@@H](O)[C@H](O[C@@H]2O[C@@H](C)[C@](O)(C=O)[C@H]2O[C@@H]2O[C@@H](CO)[C@H](O)[C@@H](O)[C@@H]2NC)[C@@H](N/C(N)=N\[H])[C@@H]1O [Streptomycin] | S and R |  |  |  |  |  |  | 
NNC(=O)c1ccncc1 [Isoniazid] | S and R | > 100 | 8 | > 6.4 | resistant signature | no expression signature induction; also recorded: clearly shows induction of an expression signature | failed to elicit a transcriptional response | responds in a susceptible manner; also recorded: susceptible signature

From patent US9885088B2, “Rapid phenotypic diagnosis of pathogens and drug resistance using transcriptional expression signatures” (priority 2010, dated 2018)
